Results: PubChem BioAssay AID230 (DTP/NCI, 2004)
“And” between values parts separate entries of the source, which are not always exact repeats. Identical values can stand only once. Inconclusive results and toxic doses are left out.

System: C3H/He mice, Gardner lymphosarcoma 6C3HED ip, survival T/C
Test: NCI In Vivo Anticancer Drug Screen. Data for tumor model Lymphosarcoma Gardner 6C3HED (intraperitoneal) in C3H/He mice
Conditions: higher = longer survival
Method: The antitumor activity of compounds was measured in mice bearing transplantable tumors. Survival or tumor size were measured and the results are expressed as the measurement made in the treated group (T) divided by the measurement made in the vehicle treated control group (C). The tumor model used in this assay is Lymphosarcoma Gardner 6C3HED (intraperitoneal) in C3H/He mice

Compound: COc1ccc2c(c1OC)C(=O)O[C@@H]2[C@H]1c2c(cc3c(c2OC)OCO3)CCN1C
- T/C (endpoint: survival time, mean or median, dose: 31.3 mg/kg/injection, schedule: Q01DX010 (ip), vehicle: saline): 90 % of control and 107 % of control
- T/C (endpoint: survival time, mean or median, dose: 62.5 mg/kg/injection, schedule: Q01DX010 (ip), vehicle: saline): 100 % of control
- T/C (endpoint: survival time, mean or median, dose: 125.0 mg/kg/injection, schedule: Q01DX010 (ip), vehicle: saline): 92 % of control

Compound: CC(=O)Nc1ccc2nc3ccc(NC(C)=O)cc3[n+](-c3ccccc3)c2c1
- T/C (endpoint: survival time, mean or median, dose: 12.5 mg/kg/injection, schedule: Q01DX010 (ip), vehicle: saline): 107 % of control
- T/C (endpoint: survival time, mean or median, dose: 25.0 mg/kg/injection, schedule: Q01DX010 (ip), vehicle: saline): 107 % of control
- T/C (endpoint: survival time, mean or median, dose: 100.0 mg/kg/injection, schedule: Q01DX010 (ip), vehicle: saline): 89 % of control

Compound: N=C(N)c1ccc(Nc2ccc(C(=N)N)cc2)cc1
- T/C (endpoint: survival time, mean or median, dose: 0.75 mg/kg/injection, schedule: Q01DX010 (ip), vehicle: saline): 103 % of control
- T/C (endpoint: survival time, mean or median, dose: 1.5 mg/kg/injection, schedule: Q01DX010 (ip), vehicle: saline): 119 % of control
- T/C (endpoint: survival time, mean or median, dose: 3.0 mg/kg/injection, schedule: Q01DX010 (ip), vehicle: saline): 107 % of control
- T/C (endpoint: survival time, mean or median, dose: 6.0 mg/kg/injection, schedule: Q01DX010 (ip), vehicle: saline): 100 % of control and 103 % of control
- T/C (endpoint: survival time, mean or median, dose: 12.0 mg/kg/injection, schedule: Q01DX010 (ip), vehicle: saline): 89 % of control
- T/C (endpoint: survival time, mean or median, dose: 24.0 mg/kg/injection, schedule: Q01DX010 (ip), vehicle: saline): 96 % of control

Compound: NCC(=O)O
- T/C (endpoint: median survival time, dose: 187.5 mg/kg/injection, schedule: Q04HX020 (ip), vehicle: saline): 88 % of control
- T/C (endpoint: median survival time, dose: 187.5 mg/kg/injection, schedule: Q06HX020 (ip), vehicle: saline): 89 % of control
- T/C (endpoint: median survival time, dose: 375.0 mg/kg/injection, schedule: Q04HX020 (ip), vehicle: saline): 88 % of control
- T/C (endpoint: median survival time, dose: 375.0 mg/kg/injection, schedule: Q06HX020 (ip), vehicle: saline): 89 % of control
- T/C (endpoint: median survival time, dose: 750.0 mg/kg/injection, schedule: Q04HX020 (ip), vehicle: saline): 92 % of control
- T/C (endpoint: median survival time, dose: 750.0 mg/kg/injection, schedule: Q06HX020 (ip), vehicle: saline): 93 % of control
- T/C (endpoint: median survival time, dose: 1500.0 mg/kg/injection, schedule: Q06HX020 (ip), vehicle: saline): 69 % of control

Compound: Nc1ncnc2c1ncn2C1OC(CO)C(O)C1O (configuration not stated)
- T/C (endpoint: median survival time, dose: 12.5 mg/kg/injection, schedule: Q01DX003 (ip), vehicle: saline): 90 % of control
- T/C (endpoint: median survival time, dose: 12.5 mg/kg/injection, schedule: Q11DX018 (ip), vehicle: saline with Tween-80): 96 % of control
- T/C (endpoint: median survival time, dose: 12.5 mg/kg/injection, schedule: Q12HX006 (ip), vehicle: saline): 108 % of control
- T/C (endpoint: median survival time, dose: 25.0 mg/kg/injection, schedule: Q01DX003 (ip), vehicle: saline): 95 % of control
- T/C (endpoint: median survival time, dose: 25.0 mg/kg/injection, schedule: Q12HX006 (ip), vehicle: saline): 112 % of control
- T/C (endpoint: median survival time, dose: 50.0 mg/kg/injection, schedule: Q01DX003 (ip), vehicle: saline): 100 % of control
- T/C (endpoint: median survival time, dose: 50.0 mg/kg/injection, schedule: Q12HX006 (ip), vehicle: saline): 120 % of control

Compound: NC(=O)N(CCCl)N=O
- T/C (endpoint: survival time, mean or median, dose: 0.5 mg/kg/injection, schedule: Q01DX010 (ip), vehicle: saline): 204 % of control
- T/C (endpoint: survival time, mean or median, dose: 1.0 mg/kg/injection, schedule: Q01DX010 (ip), vehicle: saline): 228 % of control
- T/C (endpoint: survival time, mean or median, dose: 2.0 mg/kg/injection, schedule: Q01DX010 (ip), vehicle: saline): 161 % of control
- T/C (endpoint: survival time, mean or median, dose: 4.0 mg/kg/injection, schedule: Q01DX010 (ip), vehicle: saline): 100 % of control

Compound: COc1ccc(/C=N/NC(N)=S)cc1
- T/C (endpoint: survival time, mean or median, dose: 32.0 mg/kg/injection, schedule: Q01DX010 (ip), vehicle: saline): 96 % of control
- T/C (endpoint: survival time, mean or median, dose: 64.0 mg/kg/injection, schedule: Q01DX010 (ip), vehicle: saline): 92 % of control
- T/C (endpoint: survival time, mean or median, dose: 128.0 mg/kg/injection, schedule: Q01DX010 (ip), vehicle: saline): 100 % of control
- T/C (endpoint: survival time, mean or median, dose: 256.0 mg/kg/injection, schedule: Q01DX010 (ip), vehicle: saline): 96 % of control

Compound: Nc1nc([Se])c2ncn(C3OC(CO)C(O)C3O)c2n1 (configuration not stated)
- T/C (endpoint: median survival time, dose: 1.0 mg/kg/injection, schedule: Q01DX009 (ip), vehicle: saline): 98 % of control
- T/C (endpoint: median survival time, dose: 2.0 mg/kg/injection, schedule: Q01DX009 (ip), vehicle: saline): 103 % of control
- T/C (endpoint: median survival time, dose: 4.0 mg/kg/injection, schedule: Q01DX009 (ip), vehicle: saline): 114 % of control
- T/C (endpoint: median survival time, dose: 8.0 mg/kg/injection, schedule: Q01DX009 (ip), vehicle: saline): 107 % of control
- T/C (endpoint: median survival time, dose: 16.0 mg/kg/injection, schedule: Q01DX009 (ip), vehicle: saline): 99 % of control

Compound: CS(=O)(=O)OCCN(CCOS(C)(=O)=O)c1ccc(N=O)cc1
- T/C (endpoint: survival time, mean or median, dose: 62.5 micrograms/kg/injection, schedule: Q01DX010 (ip), vehicle: saline): 107 % of control
- T/C (endpoint: survival time, mean or median, dose: 125.0 micrograms/kg/injection, schedule: Q01DX010 (ip), vehicle: saline): 111 % of control
- T/C (endpoint: survival time, mean or median, dose: 250.0 micrograms/kg/injection, schedule: Q01DX010 (ip), vehicle: saline): 111 % of control
- T/C (endpoint: survival time, mean or median, dose: 500.0 micrograms/kg/injection, schedule: Q01DX010 (ip), vehicle: saline): 92 % of control

Compound: CCC1=C(c2ccc(OC)cc2)CCC(C(=O)O)C1C (configuration not stated)
- T/C (endpoint: survival time, mean or median, dose: 12.5 mg/kg/injection, schedule: Q01DX010 (sc), vehicle: steriod suspending solution): 96 % of control
- T/C (endpoint: survival time, mean or median, dose: 25.0 mg/kg/injection, schedule: Q01DX010 (sc), vehicle: steriod suspending solution): 107 % of control
- T/C (endpoint: survival time, mean or median, dose: 50.0 mg/kg/injection, schedule: Q01DX010 (sc), vehicle: steriod suspending solution): 92 % of control
- T/C (endpoint: survival time, mean or median, dose: 100.0 mg/kg/injection, schedule: Q01DX010 (sc), vehicle: steriod suspending solution): 100 % of control
